The values that follow come from patent US9162979B2, “1,5-Diary1-2-alkylpyrrole-3-substituted nitro esters, selective COX-2 inhibitors and nitric oxide donors” (ROTTAPHARM BIOTECH S.R.L., priority 2010, dated 2015).

One series has as its target COX-2 (Mus musculus (Mouse), UniProt Q05769). Description: Evaluation of COX-2 activity: PGE2 production in LPS-stimulated J774 cells. The format is cell-based, murine. To be noted: J774 cells stimulated 24 hours with LPS 10 μg/mL; PGE2 by radio-immunological assay; read-out: Cyclooxygenase inhibition COX-2 IC50. The essentials: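 Murine J774 macrophages switched to serum-free medium before stimulation; PGE2 in supernatants measured by radioimmunoassay, triplicate wells per condition. IC50 with 95% intervals from sigmoidal variable-slope dose-response fit.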

In series [1] the test system is mouse abdominal contraction (writhing) induced by acetic acid. Description: Abdominal constriction test induced by acetic acid. The format is in vivo. Here is the method:
(§1) Male Swiss albino mice (23-25 g) and Wistar rats (150-200 g) were used.
The antinociceptive activity was determined by the mouse abdominal contraction test using acetic acid (0.6%), which induces writhing, according to Koster's method (Fed. Proc., 1959, 18, 412-418). The number of stretching movements was counted for 10 minutes, starting 5 minutes after injection of acetic acid. The results relating to analgesic activity in the abdominal constriction test with representative compounds of the invention are shown in Table 10.
The test was carried out using 10 animals in the treated group and 20 in the control group (CMC); all the compounds were administered per os with the exception of the compound of Example 8, which was administered i.p.

For series [2], the system named is isolated rings of thoracic aorta. Put plainly: Evaluation of release of NO: vasorelaxing activity on endothelium-denuded aortic rings contracted with KCl. Details: species or system rat. To be noted: for IC50 / Emax: Rattus norvegicus; for IC50: read-out: NO release properties pIC50 (vasorelaxing potency) (converted); for Emax: relative to contractile tone induced by 20 mM KCl, 1 nM-10 μM, read-out: NO release properties Emax (maximum vasorelaxing effect); for vasorelaxing effect in the presence of ODQ: ODQ 1 μM, guanylate cyclase inhibitor. The essentials: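 Endothelium-denuded male Wistar rat thoracic aorta rings (2 g preload, Tyrode, 37 °C, 95% O2/5% CO2) precontracted with 20 mM KCl, then given cumulative test compound (1 nM–10 μM). Relaxation as % of KCl tone; Emax and pIC50 reported as mean±SE of 5–10 experiments. Also repeated with 1 μM ODQ.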

The test system of series [3] is carrageenan-induced inflammatory state in the rat. Put plainly: Carrageenan test: nociceptive threshold (weight supported). It is filed as in vivo. To be noted: for Weight supported (g) Before treatment: baseline before treatment. Here is the method: as §1
The nociceptive threshold in the rat was determined with an analgesiometer, as described by Leighton et al. (Br. J. Pharmacol., 1988, 93, 553-560), the pressure was measured before the treatment and after 30 and 60 min. To reproduce the inflammatory state in the rat, carrageenan was administered i.p. (0.1 ml, 1%) 4 h before the test.
(§2) The test was performed using 6 animals per group, all the compounds were administered per os, 30 min before the test. The carrageenan is administered 2 h before the test.

Series [4] has as its system rat paw oedema induced by carrageenan. Put plainly: Volume of oedema test (carrageenan). It is filed as in vivo. As to the method: The rat paw volumes were measured using a pletismometer. Four hours after injecting carrageenan 1.0% (0.1 ml injection), the volume of the right hind-paw was measured and compared with that of controls treated with a saline/carrageenan solution. The rats were administered the test compounds 3.5 hours after the carrageenan. The results are given as paw volume expressed in ml. The results relating to the analgesic and anti-oedemic activity in the carrageenan test for some representative compounds of the invention are shown in Table 11.
as §2

Series [5] concerns MIA-induced osteoarthritis. Description: Chronic pain from MIA-induced osteoarthritis. To be noted: 20 mg/kg per os twice daily for 14 days. It is filed as in vivo, rat. As to the method:
The compounds are administered per os at a dose of 20 mg/kg twice daily for 14 days. Monosodium iodoacetate (MIA), 2 mg in 25 μL is injected in the left knee of anaesthetized rats, the test is carried out according to the literature. Each experiment represents the mean value for 5 animals.

For the next series, the system named is rat liver homogenate. Description: Evaluation of release of nitrites in hepatic homogenate. Particulars: nitrite after 4 hours, 1 mM, 37° C., as percentage of SNP.
Setting [6] is: concentration reducing contractile tone induced by 20 mM KCl by half.

Sequence of COX-2 (Q05769 18-604): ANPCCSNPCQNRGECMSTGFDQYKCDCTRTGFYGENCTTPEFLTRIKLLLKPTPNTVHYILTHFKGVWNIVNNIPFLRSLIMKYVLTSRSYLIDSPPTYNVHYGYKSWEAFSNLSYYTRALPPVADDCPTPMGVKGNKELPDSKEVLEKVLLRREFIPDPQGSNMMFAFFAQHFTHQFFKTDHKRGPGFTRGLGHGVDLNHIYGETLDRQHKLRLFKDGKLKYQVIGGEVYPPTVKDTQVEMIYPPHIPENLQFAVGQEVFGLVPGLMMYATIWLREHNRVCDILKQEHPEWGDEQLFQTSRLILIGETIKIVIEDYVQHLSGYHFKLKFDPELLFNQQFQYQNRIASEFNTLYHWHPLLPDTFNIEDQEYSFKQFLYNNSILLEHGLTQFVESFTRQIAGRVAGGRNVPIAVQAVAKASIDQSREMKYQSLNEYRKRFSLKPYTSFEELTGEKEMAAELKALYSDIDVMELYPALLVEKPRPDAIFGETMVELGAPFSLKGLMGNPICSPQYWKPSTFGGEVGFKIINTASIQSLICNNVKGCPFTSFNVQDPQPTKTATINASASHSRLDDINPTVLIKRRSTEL
Text for rat liver homogenate: By evaluating the time-dependent increase in nitrite concentrations in the liver homogenate, it was possible to extrapolate two descriptive parameters:
Time (in minutes) required for an amount of nitrite to be released by the test compound equal to half its maximum release.

Turning to `COc1ccc(-n2c(-c3ccc(S(C)(=O)=O)cc3)cc(CC(=O)OCCCCO)c2C)cc1` [Example 13-II, 4-(Hydroxy)butyl-2-[1-(4-methoxyphenyl)-2-methyl-5-(4-methylsulphonylphenyl)-1H-pyrrol-3-yl]acetate], at COX-2, the IC50 was determined as 1100 nM. The molecule also had a N writhes in series [1] (40 mg/kg per os) of 14.7 ± 2.5.

`Cc1c(CCOCCO)cc(-c2ccc(S(C)(=O)=O)cc2)n1-c1ccc(F)c(F)c1` [Example 39-II]: the melting point lay within 138 to 140 °C. Besides, at COX-2, the IC50 amounted to 420 nM. This molecule had a N writhes in series [1] (20 mg/kg per os) of 24.8 ± 3.0.

Regarding `Cc1c(CC(=O)OCCCCO[N+](=O)[O-])cc(-c2ccc(S(C)(=O)=O)cc2)n1-c1cccc(F)c1` [Example 12, 4-(Nitrooxy)butyl-2-[1-(3-fluorophenyl)-2-methyl-5-(4-methylsulphonylphenyl)-1H-pyrrol-3-yl]acetate], the melting point turned out to be 114 °C. For the same molecule, the IC50 in series [2] (setting [6]) is 3980 nM. Further, in series [2], the maximum response (Emax) worked out at 57 ± 14%. Besides, the IC50 at COX-2 is 69 nM. In series [1] (40 mg/kg per os), this molecule displayed a N writhes of 25.1 ± 2.3.

`Cc1c(C(N)C(=O)OCCCCO[N+](=O)[O-])cc(-c2ccc(S(C)(=O)=O)cc2)n1-c1ccc(F)cc1` (racemic) [Example 20, (R,S)-4-(Nitrooxy)butyl-[2-amino-2-[1-(4-fluorophenyl)-2-methyl-5-(4-methylsulphonylphenyl)-1H-pyrrol-3-yl]]-acetate] showed a melting point of 108 °C. Also, in series [2], the “vasorelaxing effect in the presence of ODQ” value is given as “not fully antagonized by ODQ” and the Emax is 93 ± 1%. For the same molecule, the IC50 in series [2] (setting [6]) is 1550 nM. Also, at COX-2, the IC50 amounted to 1000 nM. This molecule also returned a N writhes in series [1] (40 mg/kg per os) of 19.8 ± 2.4.

For the molecule `Cc1c(CC(=O)NC(CCO[N+](=O)[O-])C(=O)O)cc(-c2ccc(S(C)(=O)=O)cc2)n1-c1ccc(F)cc1` (racemic) [Example 32, (R,S)-4-(Nitroxy)-2-[[1-(4-fluorophenyl)-2-methyl-5-(4-methylsulphonylphenyl)-1H-pyrrol-3-yl]acetamido]butanoic Acid], the maximal response (Emax) in series [2] was 42 ± 9%. Moreover, the IC50 on COX-2 turned out to be 1600 nM. The N writhes in series [1] (10 mg/kg per os) came to 22.8 ± 3.0; in series [1] (20 mg/kg per os), 14.6 ± 2.7.

As to `Cc1ccc(-c2cc(C(F)(F)F)nn2-c2ccc(S(N)(=O)=O)cc2)cc1` [Celecoxib, reference compound], in series [3] (10 mg/kg per os), the “Weight supported (g) After treatment 30 min” value turned out to be 52.9 ± 3.1 g, the “Weight supported (g) After treatment 60 min” value was determined as 48.3 ± 3.4 g and the “Weight supported (g) Before treatment” value stood at 30.9 ± 2.6 g. The “Oedema Volume” value in series [4] (10 mg/kg per os) was determined as 1.91 ± 0.04 mL.

For `Cc1c(C(N)C(=O)OCCCO[N+](=O)[O-])cc(-c2ccc(S(C)(=O)=O)cc2)n1-c1ccc(F)cc1` (racemic) [Example 18, (R,S)-3-(Nitrooxy)propyl-[2-amino-2-[1-(4-fluorophenyl)-2-methyl-5-(4-methylsulphonylphenyl)-1H-pyrrol-3-yl]]-acetate], in series [2], the “vasorelaxing effect in the presence of ODQ” value was “not fully antagonized by ODQ”. The IC50 is 2190 nM in series [2] (setting [6]) and 820 nM on COX-2. Further, the maximum response (Emax) in series [2] was determined as 84 ± 2%. For the same molecule, the N writhes was determined as 26.9 ± 2.6 in series [1] (3 mg/kg per os), 21.3 ± 2.5 in series [1] (10 mg/kg per os), 18.1 ± 3.0 in series [1] (20 mg/kg per os) and 13.5 ± 2.8 in series [1] (40 mg/kg per os).

`COc1ccc(-n2c(-c3ccc(S(C)(=O)=O)cc3)cc(CC(=O)OCCO[N+](=O)[O-])c2C)cc1` [Example 4, 2-(Nitrooxy)ethyl-[1-(4-methoxy-phenyl)-2-methyl-5-(4-methylsulphonylphenyl)-1H-pyrrol-3-yl]-acetate] had a melting point of 122 °C. Further, the IC50 in series [2] (setting [6]) was 178 nM. For the same molecule, in series [2], the Emax came out at 77 ± 2%. Also, on COX-2, the IC50 came to 170 nM. Besides, in series [1] (40 mg/kg per os), the N writhes is reported as 17.7 ± 2.3.

For the molecule `Cc1c(CCOCCO)cc(-c2ccc(S(C)(=O)=O)cc2)n1-c1ccc(F)cc1` [Example 37-II], in series [3] (20 mg/kg per os), the “Weight supported (g) After treatment 30 min” value is given as 46.8 ± 3.7 g, the “Weight supported (g) After treatment 60 min” value was found to be 38.7 ± 3.3 g and the “Weight supported (g) Before treatment” value stood at 32.5 ± 3.4 g. Moreover, in series [5], the “Weight supported (g) After treatment 30 min” value worked out at 51.2 ± 3.9 g, the “Weight supported (g) After treatment 4 h” value came to 50.3 ± 3.8 g, the “Weight supported (g) After treatment 24 h” value amounted to 48.1 ± 3.3 g and the “Weight supported (g) After treatment 36 h” value was 47.4 ± 3.3 g. Further, the “Weight supported (g) Before treatment” value in series [5] (baseline before treatment) came out at 33.5 ± 2.6 g. Also, in series [1] (40 mg/kg per os), the N writhes was 18.2 ± 3.1. For the same molecule, in series [4] (20 mg/kg per os), the “Oedema Volume” value is listed as 2.08 ± 0.07 mL.

As for `COc1ccc(-n2c(-c3ccc(S(C)(=O)=O)cc3)cc(CC(=O)OCCCO[N+](=O)[O-])c2C)cc1` [Example 9, 3-(Nitroxy)propyl-[1-(4-methoxyphenyl)-2-methyl-5-(4-methylsulphonylphenyl)-1H-pyrrol-3-yl]-acetate], the melting point worked out at 115 °C. The maximal response (Emax) in series [2] is 41 ± 11%. Moreover, the IC50 at COX-2 amounted to 2 nM. In addition, the N writhes in series [1] (20 mg/kg per os) is reported as 18.4 ± 3.1.

For the molecule `Cc1c(CCOCCO)cc(-c2ccc(S(C)(=O)=O)cc2)n1-c1cccc(F)c1` [Example 38-II], the IC50 on COX-2 was determined as 46 nM. The figures for the N writhes in series [1] (20 mg/kg per os) and in series [1] (40 mg/kg per os) were 26.8 ± 3.2 and 17.3 ± 3.5, respectively.

On to `Cc1c(CC(=O)NCCO[N+](=O)[O-])cc(-c2ccc(S(C)(=O)=O)cc2)n1-c1ccc(F)cc1` [Example 23, N-[(2-Nitroxy)ethyl]-2-[1-(4-fluorophenyl)-2-methyl-5-(4-methylsulphonylphenyl)-1H-pyrrol-3-yl]acetamide], for which the melting point came to 135 °C. Further, in series [2] (setting [6]), the IC50 was 4900 nM and the “NO release properties pIC50 (vasorelaxing potency)” value was 5.31 ± 0.05. Moreover, in series [2], the Emax came out at 68 ± 6%. Further, on COX-2, the IC50 was 240 nM.

As for `Cc1c(CC(=O)OCCCO[N+](=O)[O-])cc(-c2ccc(S(C)(=O)=O)cc2)n1-c1cccc(F)c1` [Example 8, 3-(Nitroxy)propyl-[1-(3-fluorophenyl)-2-methyl-5-(4-methylsulphonylphenyl)-1H-pyrrol-3-yl]-acetate], the figures for the IC50 (in series [2] (setting [6]); on COX-2) were 162 nM and 7 nM, respectively. In addition, the maximal effect (Emax) in series [2] came out at 82 ± 1%. The N writhes in series [1] (20 mg/kg i.p.) was found to be 16.9 ± 2.4.

With `Cc1c(C(N)C(=O)OCCO[N+](=O)[O-])cc(-c2ccc(S(C)(=O)=O)cc2)n1-c1ccc(F)cc1` (racemic) [Example 16, (R,S)-2-(Nitrooxy)ethyl-[2-amino-2-[1-(4-fluorophenyl)-2-methyl-5-(4-methylsulphonylphenyl)-1H-pyrrol-3-yl]]-acetate], the IC50 in series [2] (setting [6]) was 1120 nM; on COX-2, 740 nM. Besides, in series [2], the maximum response (Emax) came to 80 ± 7%. In addition, in series [1] (40 mg/kg per os), the N writhes is reported as 24.9 ± 3.0.

Take `O=C(NCCO[N+](=O)[O-])c1cccnc1` [Nicorandil, reference compound]: the “Maximum release (%)” value in the series with rat liver homogenate came to 18 ± 2%.

With `Cc1c(CC(=O)OCCO[N+](=O)[O-])cc(-c2ccc(S(C)(=O)=O)cc2)n1-c1cccc(F)c1` [Example 3, 2-(Nitrooxy)ethyl-2-[(1-(3-fluorophenyl)-2-methyl-5-(4-methylsulphonylphenyl)-1H-pyrrol-3-yl)]acetate], the IC50 in series [2] (setting [6]) was 331 nM. The Emax in series [2] was determined as 69 ± 4%. In series [3] (40 mg/kg per os), the “Weight supported (g) After treatment 30 min” value is reported as 54.1 ± 3.7 g, the “Weight supported (g) After treatment 60 min” value is recorded as 38.7 ± 3.1 g and the “Weight supported (g) Before treatment” value is 32.6 ± 2.7 g. The IC50 on COX-2 came to 19 nM. The molecule also returned a N writhes in series [1] (20 mg/kg per os) of 17.1 ± 2.3. Further, the N writhes in series [1] (40 mg/kg per os) was found to be 9.4 ± 2.5. In addition, the “Oedema Volume” value in series [4] (40 mg/kg per os) was 2.17 ± 0.08 mL.
